Measured values taken from patent US20210060121A1, “NOVEL ANTIBIOTICS AND METHODS OF USING THEM” (priority 2018, published 2021).
In brackets after ≈: the same amount, converted by molar mass.

Legend:
[1] = test system: Streptococcus faecalis SF; format: cell-based
Procedure: (§1) Susceptibility to teixobactin and its analogues was tested on the selected Gram-positive strains using Tecan Freedom EVO high-throughput automated platform, following the standard broth dilution method as described by the Clinical and Laboratory Standards Institute ^3. MICS were determined according to CLSI guideline.

Enterococcus ET6 = format: cell-based
Procedure: as §1

Enterococcus ATCCET = format: cell-based
Procedure: as §1

Enterococcus ET60 = format: cell-based
Procedure: as §1

MRSA(SA11I4) = format: cell-based, Staphylococcus aureus
Procedure: as §1

MRSA SA11 = format: cell-based, Staphylococcus aureus
Procedure: as §1

MRSA SA86 = format: cell-based, Staphylococcus aureus
Procedure: as §1

MRSA SA88 = format: cell-based, Staphylococcus aureus
Procedure: as §1

SA (ATCC29213) = format: cell-based, Staphylococcus aureus
Procedure: as §1

[2] = test system: Streptococcus faecalis and Enterococcus strains; assay: MIC, text summary over Streptococcus faecalis and Enterococcus; format: cell-based; conditions: against Streptococcus faecalis and Enterococcus strains; Table 2
Procedure: as §1

MRSA and SA strains = assay: MIC, summary over S. aureus strains; format: cell-based, Staphylococcus aureus; conditions: against MRSA and SA strains; Table 2
Procedure: as §1

CC[C@@H](C)[C@@H](NC(=O)[C@@H](CCC(N)=O)NC(=O)[C@@H](NC(=O)[C@@H](NC(=O)[C@@H](Cc1ccccc1)NC)[C@@H](C)CC)[C@@H](C)CC)C(=O)N[C@H](C(=O)N[C@@H](CO)C(=O)N[C@H]1C(=O)N[C@@H](C)C(=O)N[C@@H](C2CCCCC2)C(=O)N[C@@H]([C@@H](C)CC)C(=O)O[C@H]1C)[C@@H](C)CC [T88]
Minimum inhibitory concentration (MIC) Streptococcus faecalis SF [1]: 1 µg/mL (≈ 0.798 µM) | Minimum inhibitory concentration (MIC) Enterococcus ET6 (Enterococcus ET6): 2 µg/mL (≈ 1.6 µM) | Minimum inhibitory concentration (MIC) Enterococcus ATCCET (Enterococcus ATCCET): 2 µg/mL (≈ 1.6 µM) | Minimum inhibitory concentration (MIC) Enterococcus ET60 (Enterococcus ET60): 1 µg/mL (≈ 0.798 µM) | Minimum inhibitory concentration (MIC) MRSA(SA11I4) (MRSA(SA11I4)): 8 µg/mL (≈ 6.38 µM) | Minimum inhibitory concentration (MIC) MRSA SA11 (MRSA SA11): 4 µg/mL (≈ 3.19 µM) | Minimum inhibitory concentration (MIC) MRSA SA86 (MRSA SA86): 4 µg/mL (≈ 3.19 µM) | Minimum inhibitory concentration (MIC) MRSA SA88 (MRSA SA88): 4 µg/mL (≈ 3.19 µM) | Minimum inhibitory concentration (MIC) SA (ATCC29213) (SA (ATCC29213)): 4 µg/mL (≈ 3.19 µM) | Activities compared with teixobactin [2]: better than teixobactin | Activities, times lower than teixobactin (MRSA and SA strains): about 4 times
